Twelve molecules from patent publication US9115117B2, “Substituted piperidine compounds and their use as orexin receptor modulators” (JANSSEN PHARMACEUTICA NV, priority 2013, dated 2015) can be followed below.

Each structure is given as a SMILES string.

Chain of human orexin 2 receptor (O43614 whole entry): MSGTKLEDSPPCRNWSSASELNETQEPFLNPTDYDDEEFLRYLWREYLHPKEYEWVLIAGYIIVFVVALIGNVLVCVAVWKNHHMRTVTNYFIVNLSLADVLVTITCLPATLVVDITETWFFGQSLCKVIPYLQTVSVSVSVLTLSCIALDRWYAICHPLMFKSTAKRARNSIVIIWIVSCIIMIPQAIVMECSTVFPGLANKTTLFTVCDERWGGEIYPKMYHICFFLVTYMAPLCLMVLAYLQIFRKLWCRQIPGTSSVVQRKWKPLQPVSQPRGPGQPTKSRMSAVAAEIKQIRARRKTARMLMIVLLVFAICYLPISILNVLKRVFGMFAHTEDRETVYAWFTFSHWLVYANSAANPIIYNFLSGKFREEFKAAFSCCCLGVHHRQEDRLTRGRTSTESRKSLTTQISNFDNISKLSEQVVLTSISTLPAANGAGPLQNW

This assay concerns the target human orexin 2 receptor (Homo sapiens (Human), UniProt O43614). Nature of the assay: Human orexin 2 receptor radioligand binding ([3H]-EMPA). The note with it: HEK293 stably expressing human orexin 2 receptor; [3H]-EMPA; apparent Ki; read-out: hOX2 Ki. The method, then: After centrifugation (2K×G, 5 min at 4° C.), the supernatant was aspirated and the pellets frozen and stored at −80° C. […] Each cell pellet from a 15 cm plate was resuspended in 10 mL, stored on ice, and homogenized for 45 sec just prior to addition to the reactions. Competition binding experiments in 96 well polypropylene plates were performed using [^3H]-EMPA (Moraveck Corporation, specific activity=29.6 Ci/mmol), diluted to a 5 nM concentration in PBS (2 nM final concentration). […] The final concentration of DMSO in the reactions is equal to or less than 0.1%. Total and nonspecific binding was determined in the absence and presence of […]. The total volume of each reaction is 200 μL (20 μL of diluted compounds, 80 μL of [^3H]-EMPA diluted in PBS and 100 μL of the cell suspension).
The plates were washed 3 times by aspirating 30 ml PBS through the plates. Plates were dried in 55° C. oven for 60 min, scintillation fluid was added, and the radioactivity was counted on a Topcount (Packard).
Turning to `Cc1ccc(-c2ncccn2)c(C(=O)N2CCC[C@@H](Nc3cc(C)nc(C(F)(F)F)n3)[C@@H]2C)c1` (racemic) [Example 7, (±)-trans-(5-methyl-2-(pyrimidin-2-yl)phenyl)(2-methyl-3-((6-methyl-2-(trifluoromethyl)pyrimidin-4-yl)amino)piperidin-1-yl)methanone], the Ki came to 228 nM. In the case of `CCOc1ccc(C)nc1C(=O)N1CCC[C@@H](Nc2ccc(C(F)(F)F)cn2)[C@@H]1C` (racemic) [Example 16, (±)-trans-(3-ethoxy-6-methylpyridin-2-yl)(2-methyl-3-((5-(trifluoromethyl)pyridin-2-yl)amino)piperidin-1-yl)methanone] it was 680 nM; in that of `C[C@H]1[C@H](Nc2ccc(C(F)(F)F)cn2)CCCN1C(=O)c1ncccc1-n1nccn1` (racemic) [Example 21, (±)-trans-(3-(2H-1,2,3-triazol-2-yl)pyridin-2-yl)(2-methyl-3-((5-(trifluoromethyl)pyridin-2-yl)amino)piperidin-1-yl)methanone], 595 nM.

With `C[C@H]1[C@H](Nc2ccc(C(F)(F)F)cn2)CCCN1C(=O)c1cc(F)ccc1-n1nccn1` (racemic) [Example 24, (±)-trans-(5-fluoro-2-(2H-1,2,3-triazol-2-yl)phenyl)(2-methyl-3-((5-(trifluoromethyl)pyridin-2-yl)amino)piperidin-1-yl)methanone], the Ki turned out to be 324 nM. The value for `Cc1cnc(N[C@@H]2CCCN(C(=O)c3ccccc3-n3nccn3)[C@H]2C)nc1` (racemic) [Example 31, (±)-trans-(2-(2H-1,2,3-triazol-2-yl)phenyl)(2-methyl-3-((5-methylpyrimidin-2-yl)amino)piperidin-1-yl)methanone] was 508 nM; that for `C[C@H]1[C@H](Nc2ccc(Cl)cn2)CCCN1C(=O)c1ccccc1-n1nccn1` (racemic) [Example 32, (±)-trans-(2-(2H-1,2,3-triazol-2-yl)phenyl)(3-((5-chloropyridin-2-yl)amino)-2-methylpiperidin-1-yl)methanone] was 286 nM. In the case of `C[C@H]1[C@H](Nc2ncc3ccccc3n2)CCCN1C(=O)c1ccccc1-n1nccn1` (racemic) [Example 39, (±)-trans-(2-(2H-1,2,3-triazol-2-yl)phenyl)(2-methyl-3-(quinazolin-2-ylamino)piperidin-1-yl)methanone] it was 189 nM. In the case of `CCOc1ccccc1C(=O)N1CCC[C@@H](Nc2nc3cc(Cl)ccc3o2)[C@@H]1C` (racemic) [Example 46, (±)-trans-(3-((5-chlorobenzo[d]oxazol-2-yl)amino)-2-methylpiperidin-1-yl)(2-ethoxyphenyl)methanone] it was 489 nM; in that of `C[C@H]1[C@H](Nc2cnc3ccccc3n2)CCCN1C(=O)c1ccccc1-n1nccn1` (racemic) [Example 48, (±)-trans-(2-(2H-1,2,3-triazol-2-yl)phenyl)(2-methyl-3-(quinoxalin-2-ylamino)piperidin-1-yl)methanone], 96 nM; in that of `C[C@H]1[C@H](Nc2nccc(-c3ccccc3)n2)CCCN1C(=O)c1ccccc1-n1nccn1` (racemic) [Example 51, (±)-trans-(2-(2H-1,2,3-triazol-2-yl)phenyl)(2-methyl-3-((4-phenylpyrimidin-2-yl)amino)piperidin-1-yl)methanone], 2100 nM. `COc1c(F)cccc1C(=O)N1CCC[C@@H](Nc2nccc(-c3ccccc3)n2)[C@@H]1C` (racemic) [Example 52, (±)-trans-(3-fluoro-2-methoxyphenyl)(2-methyl-3-((4-phenylpyrimidin-2-yl)amino)piperidin-1-yl)methanone]: the Ki came out at 2700 nM.

Turning to `CCOc1ccccc1C(=O)N1CCC[C@@H](Nc2nccc(-c3ccccc3)n2)[C@@H]1C` (racemic) [Example 53, (±)-trans-(2-ethoxyphenyl)(2-methyl-3-((4-phenylpyrimidin-2-yl)amino)piperidin-1-yl)methanone], the Ki turned out to be 58 nM.
